Measurements reported in paper PMC6979384, “Characterization of the plant homeodomain (PHD) reader family for their histone tail interactions” (Epigenetics & Chromatin, 2020).

What was measured:
Test in all cases: Histone peptide microarray
Format in all cases: binding, human
CHD5 (PCC) = conditions: GST-tagged CHD5 (PCC = PHD + Dual Chromodomain); histone peptide array; arrays performed twice, n of 4
Method in brief: (§1)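 Readout is array binding signal, reported as the mean and standard deviation over four replicates. Each purified GST-fused PHD domain was incubated at 0.5 μM with a library of 293 modified histone peptides.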

KDM5A (1) = conditions: GST-tagged KDM5A (1); histone peptide array; arrays performed twice, n of 4
Method in brief: as §1

DPF2 (PPC2W2) = conditions: GST-tagged DPF2 (PPC2W2 = Dual PHD + C2W2-type Zn-finger); histone peptide array; arrays performed twice, n of 4
Method in brief: as §1

KDM7A = conditions: GST-tagged KDM7A; histone peptide array; arrays performed twice, n of 4
Method in brief: as §1

PHF2 = conditions: GST-tagged PHF2; histone peptide array; arrays performed twice, n of 4
Method in brief: as §1

KDM4C (TTP) = conditions: GST-tagged KDM4C (TTP = Tandem Tudor domain + PHD); histone peptide array; arrays performed twice, n of 4
Method in brief: as §1

TRIM66 (PB) = conditions: GST-tagged TRIM66 (PB = PHD + Bromodomain); histone peptide array; arrays performed twice, n of 4
Method in brief: as §1

BPTF (PB) = conditions: GST-tagged BPTF (PB = PHD + Bromodomain); histone peptide array; arrays performed twice, n of 4
Method in brief: as §1

TAF3 = conditions: GST-tagged TAF3; histone peptide array; arrays performed twice, n of 4
Method in brief: as §1

RAG2 = conditions: GST-tagged RAG2; histone peptide array; arrays performed twice, n of 4
Method in brief: as §1

ING4 = conditions: GST-tagged ING4; histone peptide array; arrays performed twice, n of 4
Method in brief: as §1

PHF21A = conditions: GST-tagged PHF21A; histone peptide array; arrays performed twice, n of 4
Method in brief: as §1

DIDO1 = conditions: GST-tagged DIDO1; histone peptide array; arrays performed twice, n of 4
Method in brief: as §1

MLL5 = conditions: GST-tagged MLL5; histone peptide array; arrays performed twice, n of 4
Method in brief: as §1

PHF13 = conditions: GST-tagged PHF13; histone peptide array; arrays performed twice, n of 4
Method in brief: as §1

PHF23 = conditions: GST-tagged PHF23; histone peptide array; arrays performed twice, n of 4
Method in brief: as §1

SP140L = conditions: GST-tagged SP140L; histone peptide array; arrays performed twice, n of 4
Method in brief: as §1

ING3 = conditions: GST-tagged ING3; histone peptide array; arrays performed twice, n of 4
Method in brief: as §1

MORC3 (CW) = conditions: GST-tagged MORC3 (CW = CW-type Zn-finger); histone peptide array; arrays performed twice, n of 4
Method in brief: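 Purified PHD finger domains fused to GST are screened against 293 synthetic histone peptides bearing one or several post-translational modifications. The protein is used at 0.5 μM, and the signal from four replicate arrays is averaged, with standard deviation given.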

ING2 = conditions: GST-tagged ING2; histone peptide array; arrays performed twice, n of 4
Method in brief: as §1

CHD5 (PPCC) = conditions: GST-tagged CHD5 (PPCC = Dual PHD + Dual Chromodomain); histone peptide array; arrays performed twice, n of 4
Method in brief: as §1

ING1 = conditions: GST-tagged ING1; histone peptide array; arrays performed twice, n of 4
Method in brief: as §1

AIRE (PP) = conditions: GST-tagged AIRE (PP); histone peptide array; arrays performed twice, n of 4
Method in brief: as §1

BAZ2B = conditions: GST-tagged BAZ2B; histone peptide array; arrays performed twice, n of 4
Method in brief: as §1

PHF8 = conditions: GST-tagged PHF8; histone peptide array; arrays performed twice, n of 4
Method in brief: as §1

ING5 = conditions: GST-tagged ING5; histone peptide array; arrays performed twice, n of 4
Method in brief: as §1

CHD4 (PPCC) = conditions: GST-tagged CHD4 (PPCC = Dual PHD + Dual Chromodomain); histone peptide array; arrays performed twice, n of 4
Method in brief: as §1

KDM5B (3) = conditions: GST-tagged KDM5B (3); histone peptide array; arrays performed twice, n of 4
Method in brief: as §1

KDM5B (1) = conditions: GST-tagged KDM5B (1); histone peptide array; arrays performed twice, n of 4
Method in brief: as §1

KDM5A (3) = conditions: GST-tagged KDM5A (3); histone peptide array; arrays performed twice, n of 4
Method in brief: as §1

PHRF1 (RP) = conditions: GST-tagged PHRF1 (RP); histone peptide array; arrays performed twice, n of 4
Method in brief: as §1

Q: What does the source list for H4R3me2s: H4 1-23 [Peptide H4R3me2s]?
A: Array Heatmap signal, CHD5 (PCC) (CHD5 (PCC)): 0.8078; Array Heatmap signal, KDM5A (1) (KDM5A (1)): 0.4765; Array Heatmap signal, DPF2 (PPC2W2) (DPF2 (PPC2W2)): 0.7228; Array Heatmap signal, KDM7A (KDM7A): 0.4774; Array Heatmap signal, PHF2 (PHF2): 0.5067; Array Heatmap signal, KDM4C (TTP) (KDM4C (TTP)): 0.5129; Array Heatmap signal, TRIM66 (PB) (TRIM66 (PB)): 0.614; Array Heatmap signal, BPTF (PB) (BPTF (PB)): 0.3851; Array Heatmap signal, TAF3 (TAF3): 0.3502; Array Heatmap signal, RAG2 (RAG2): 0.376; Array Heatmap signal, ING4 (ING4): 0.4621; Array Heatmap signal, PHF21A (PHF21A): 0.451; Array Heatmap signal, DIDO1 (DIDO1): 0.7583; Array Heatmap signal, MLL5 (MLL5): 0.6336; Array Heatmap signal, PHF13 (PHF13): 0.6145; Array Heatmap signal, PHF23 (PHF23): 0.6199; Array Heatmap signal, SP140L (SP140L): 0.3481; Array Heatmap signal, ING3 (ING3): 0.498; Array Heatmap signal, MORC3 (CW) (MORC3 (CW)): 0.4671; Array Heatmap signal, ING2 (ING2): 0.6344; Array Heatmap signal, CHD5 (PPCC) (CHD5 (PPCC)): 0.5547; Array Heatmap signal, ING1 (ING1): 0.5148; Array Heatmap signal, AIRE (PP) (AIRE (PP)): 0.462; Array Heatmap signal, BAZ2B (BAZ2B): 0.5351; Array Heatmap signal, PHF8 (PHF8): 0.4581; Array Heatmap signal, ING5 (ING5): 0.3741; Array Heatmap signal, CHD4 (PPCC) (CHD4 (PPCC)): 0.556; Array Heatmap signal, KDM5B (3) (KDM5B (3)): 0.5522; Array Heatmap signal, KDM5B (1) (KDM5B (1)): 0.7045; Array Heatmap signal, KDM5A (3) (KDM5A (3)): 0.6488; Array Heatmap signal, PHRF1 (RP) (PHRF1 (RP)): 0.4693

Q: Which results are given for H4S1p + R3me2a: H4 1-23?
A: Array Heatmap signal, CHD5 (PCC) (CHD5 (PCC)): 0.908; Array Heatmap signal, KDM5A (1) (KDM5A (1)): 0.5298; Array Heatmap signal, DPF2 (PPC2W2) (DPF2 (PPC2W2)): 0.7324; Array Heatmap signal, KDM7A (KDM7A): 0.485; Array Heatmap signal, PHF2 (PHF2): 0.5511; Array Heatmap signal, KDM4C (TTP) (KDM4C (TTP)): 0.5709; Array Heatmap signal, TRIM66 (PB) (TRIM66 (PB)): 0.7721; Array Heatmap signal, BPTF (PB) (BPTF (PB)): 0.4592; Array Heatmap signal, TAF3 (TAF3): 0.5622; Array Heatmap signal, RAG2 (RAG2): 0.4591; Array Heatmap signal, ING4 (ING4): 0.5743; Array Heatmap signal, PHF21A (PHF21A): 0.4964; Array Heatmap signal, DIDO1 (DIDO1): 0.8161; Array Heatmap signal, MLL5 (MLL5): 0.6348; Array Heatmap signal, PHF13 (PHF13): 0.7049; Array Heatmap signal, PHF23 (PHF23): 0.6265; Array Heatmap signal, SP140L (SP140L): 0.4294; Array Heatmap signal, ING3 (ING3): 0.5499; Array Heatmap signal, MORC3 (CW) (MORC3 (CW)): 0.5537; Array Heatmap signal, ING2 (ING2): 0.6378; Array Heatmap signal, CHD5 (PPCC) (CHD5 (PPCC)): 0.617; Array Heatmap signal, ING1 (ING1): 0.5568; Array Heatmap signal, AIRE (PP) (AIRE (PP)): 0.6422; Array Heatmap signal, BAZ2B (BAZ2B): 0.5882; Array Heatmap signal, PHF8 (PHF8): 0.44; Array Heatmap signal, ING5 (ING5): 0.4163; Array Heatmap signal, CHD4 (PPCC) (CHD4 (PPCC)): 0.6213; Array Heatmap signal, KDM5B (3) (KDM5B (3)): 0.6926; Array Heatmap signal, KDM5B (1) (KDM5B (1)): 0.7314; Array Heatmap signal, KDM5A (3) (KDM5A (3)): 0.5495; Array Heatmap signal, PHRF1 (RP) (PHRF1 (RP)): 0.5062

Q: Which “Array Heatmap signal, CHD5 (PCC)” value (CHD5 (PCC)) does the source give for H4S1p + R3me2s: H4 1-23 here?
A: 0.9435

Q: And the “Array Heatmap signal, KDM5A (1)” value (KDM5A (1))?
A: 0.508

Q: And the “Array Heatmap signal, DPF2 (PPC2W2)” value (DPF2 (PPC2W2))?
A: 0.7264

Q: What about the “Array Heatmap signal, KDM7A” value (KDM7A) of the same substance?
A: 0.5358

Q: And the “Array Heatmap signal, PHF2” value (PHF2)?
A: 0.514

Q: What about the “Array Heatmap signal, KDM4C (TTP)” value (KDM4C (TTP)) of the same substance?
A: 0.5709

Q: What about the “Array Heatmap signal, TRIM66 (PB)” value (TRIM66 (PB)) of the same substance?
A: 0.8775

Q: And the “Array Heatmap signal, BPTF (PB)” value (BPTF (PB))?
A: 0.4125

Q: What about the “Array Heatmap signal, TAF3” value (TAF3) of the same substance?
A: 0.439

Q: And the “Array Heatmap signal, RAG2” value (RAG2)?
A: 0.4186

Q: What about the “Array Heatmap signal, ING4” value (ING4) of the same substance?
A: 0.5288

Q: What about the “Array Heatmap signal, PHF21A” value (PHF21A) of the same substance?
A: 0.5145

Q: What about the “Array Heatmap signal, DIDO1” value (DIDO1) of the same substance?
A: 0.7409

Q: What about the “Array Heatmap signal, MLL5” value (MLL5) of the same substance?
A: 0.6789

Q: What about the “Array Heatmap signal, PHF13” value (PHF13) of the same substance?
A: 0.6986

Q: And the “Array Heatmap signal, PHF23” value (PHF23)?
A: 0.5739

Q: And the “Array Heatmap signal, SP140L” value (SP140L)?
A: 0.3935

Q: What about the “Array Heatmap signal, ING3” value (ING3) of the same substance?
A: 0.5221

Q: What about the “Array Heatmap signal, MORC3 (CW)” value (MORC3 (CW)) of the same substance?
A: 0.5092

Q: And the “Array Heatmap signal, ING2” value (ING2)?
A: 0.6427

Q: What about the “Array Heatmap signal, CHD5 (PPCC)” value (CHD5 (PPCC)) of the same substance?
A: 0.6121

Q: And the “Array Heatmap signal, ING1” value (ING1)?
A: 0.5472

Q: And the “Array Heatmap signal, AIRE (PP)” value (AIRE (PP))?
A: 0.5797

Q: What about the “Array Heatmap signal, BAZ2B” value (BAZ2B) of the same substance?
A: 0.546

Q: What about the “Array Heatmap signal, PHF8” value (PHF8) of the same substance?
A: 0.4081

Q: What about the “Array Heatmap signal, ING5” value (ING5) of the same substance?
A: 0.4164

Q: What about the “Array Heatmap signal, CHD4 (PPCC)” value (CHD4 (PPCC)) of the same substance?
A: 0.6243

Q: What about the “Array Heatmap signal, KDM5B (3)” value (KDM5B (3)) of the same substance?
A: 0.6247

Q: What about the “Array Heatmap signal, KDM5B (1)” value (KDM5B (1)) of the same substance?
A: 0.7342

Q: What about the “Array Heatmap signal, KDM5A (3)” value (KDM5A (3)) of the same substance?
A: 0.5274

Q: What about the “Array Heatmap signal, PHRF1 (RP)” value (PHRF1 (RP)) of the same substance?
A: 0.4781
